Where “and” joins values, the source holds several entries; their conditions need not be identical. Equal entries are not always repeated. Structures can show the parent of a compound that is named as a salt.
What was measured:
[1] = cited from earlier work
ODC = settings: even at high (>500 μM) concentrations; no reference given; cited from earlier work
[2] = molecular target: T1, purified human ODC enzyme (Homo sapiens, UniProt P11926); experiment: In vitro ODC enzyme activity assay; format: biochemical; settings: for inhibition at 50 µM: read-out: ODC biochemical inhibition % (50 μM); for IC50: read-out: ODC biochemical inhibition IC50; for lower activity relative to racemic 7: ratio of ODC IC50s
T1 construct: His6 (C); made in house; host or cells: E. coli BL21(DE3)
T1 sequence (P11926 1-461): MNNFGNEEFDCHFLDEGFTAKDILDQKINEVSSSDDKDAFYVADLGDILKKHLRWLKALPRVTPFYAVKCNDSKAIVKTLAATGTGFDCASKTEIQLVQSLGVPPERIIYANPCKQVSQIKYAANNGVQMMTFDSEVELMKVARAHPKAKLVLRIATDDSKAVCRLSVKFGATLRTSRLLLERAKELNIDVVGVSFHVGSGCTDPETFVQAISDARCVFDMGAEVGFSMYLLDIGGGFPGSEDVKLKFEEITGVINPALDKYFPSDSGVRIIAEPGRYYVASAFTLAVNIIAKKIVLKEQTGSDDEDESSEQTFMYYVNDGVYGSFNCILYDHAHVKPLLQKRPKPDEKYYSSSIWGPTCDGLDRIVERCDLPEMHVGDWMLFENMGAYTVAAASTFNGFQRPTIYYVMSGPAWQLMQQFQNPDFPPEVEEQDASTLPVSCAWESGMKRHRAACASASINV
Experimental: (§1) Our strategy to identify novel ODC inhibitors was to first screen new analogs for ODC inhibition at 50 μM using our in vitro enzyme activity assay and purified human ODC (Table 1). Those showing significant inhibition were then titrated to provide an ODC IC50 followed by cell-based screening against both cancer (Kelly neuroblastoma) and noncancerous (neonatal fibroblasts) cell lines. For the cancer cell line, higher cytotoxicity was desired and for the noncancerous cell line counter screen, lower cytotoxicity was desired.
In vitro ODC activity was measured using 100 ng of purified human ODC enzyme, as we previously described.[53],[99] ODC was incubated with increasing concentrations of inhibitors for 30 min at room temperature in a buffer containing 25 mM Tris and 0.1 mM EDTA. […] In the cell-based ODC activity assay, Kelly neuroblastoma cells that were treated with 500 μM inhibitors were harvested in a buffer containing 25 mM Tris HCl, 0.1 mM EDTA, and 2.5 mM DTT. […] For both the in vitro and cell-based assay, the microcentrifuge tubes were then placed into scintillation vials containing a piece of filter paper saturated with 200 μL of 0.1 M NaOH to capture the release of radiolabeled carbon dioxide. The samples were incubated in a 37 °C incubator while shaking for 30 min (in vitro) or 2 h (cell-based). The enzymatic reaction was stopped by adding 250 μL of 5 M sulfuric acid to each sample and incubating at 37 °C while shaking for 30 min. The microcentrifuge tubes were removed from the scintillation vials, and 5 mL of scintillation fluid was added. Disintegrations per minute (DPM) of each sample was measured using a TriCarb liquid scintillation counter (PerkinElmer). The specific ODC activity is expressed as nmol CO2/min/mg protein (in vitro) or pmol CO2/min/mg protein (cell-based). The individual ODC inhibitor IC50 values were determined using Graphpad Prism 8.

[3] = test system: Kelly neuroblastoma cells; experiment: Sulforhodamine B (SRB) cytotoxicity assay, Kelly neuroblastoma cells; format: cell-based; settings: for Cell cytotoxicity (72 hr @ 500 μM) Kelly Neuroblastoma: percent cytotoxicity; for cytotoxicity at 500 µM: Kelly, 72 hrs @500 µM, supplement csv, read-out: Kelly Neuroblasoma Cells (72 hrs @500 µM) %cytotoxicity; for activity against Kelly neuroblastoma cells (in words): 72 h; for Cell cytotoxicity (72 hr @ 500 μM) Kelly Neuroblastoma / activity against Kelly neuroblastoma cells (in words): 500 μM
Experimental: as §1
(§2) Normal primary human neonatal fibroblast cells (ATCC) were maintained in DMEM medium (Gibco) supplemented with 10% heat-inactivated fetal bovine serum (Hyclone), penicillin (100 IU/mL), and streptomycin (100 μg/mL), nonessential amino acids (0.1 mM) and sodium pyruvate (1 mM). Kelly neuroblastoma cells (Sigma-Aldrich) were maintained in RPMI medium (Corning) supplemented with 10% heat-inactivated fetal bovine serum (Hyclone), penicillin (100 IU/mL), and streptomycin (100 μg/mL). Cell lines were routinely monitored for mycoplasma contamination using the MycoAlert PLUS Mycoplasma Detection Kit (Lonza).
(§3) The colorimetric sulforhodamine B (SRB) assay was used to measure cytotoxicity following treatment with ODC inhibitors. Briefly, Kelly neuroblastoma cells and normal primary human neonatal fibroblast cells were plated in transparent flat 96-well plates and allowed to attach overnight. Cells were treated with control or 500 μM ODC inhibitor for 72 h. Cells were then fixed with 10% TCA at 4 °C for 1 h, washed with deionized water, and dried at room temperature. Cells were stained with 100 μL of 0.4% SRB in 1% acetic acid for 20 min at room temperature, rinsed five times with 1% acetic acid and allowed to dry at room temperature. One hundred μL of 10 mM Tris–HCl pH 7.0 was added to each well, shaken for 10 min at room temperature and absorbance was read at 540 nm. Absorbance values were normalized relative to control readings and converted to percentage by multiplying by one hundred. The percent cytotoxicity was then determined by subtracting the relative percentage of the ODC inhibitor treated readings from the control which is 100%.

[4] = Sulforhodamine B (SRB) cytotoxicity assay, neonatal fibroblasts; format: cell-based, human; settings: human, normal primary neonatal fibroblast cells; 72 hrs @500 µM; supplement csv
Experimental: as §1, §2, §3

[5] = test system: normal primary human neonatal fibroblast cells; experiment: as above; format: cell-based; settings: 500 μM; for cytotoxic activity against neonatal fibroblasts (in words): 72 h; for Cell cytotoxicity (72 hr @ 500 μM) Neonatal Fibroblasts: percent cytotoxicity
Experimental: as §1, §2, §3

Structure (SMILES)	ODC inhibitory activity (in words) [2]	inhibition at 50 µM [2]	IC50 [2]	LE ([2]; ligand efficiency)	LE ([2]; supplement csv)	lower activity relative to racemic 7 [2]	relative activity of S-enantiomer over R-enantiomer ([2]; 10-S-PLP vs 10-R-PLP, ODC IC50)	pKa of amino group ([1]; ornithine α-amino group, putrescine nitrogen)	pKa printed in Figure 1 ([1]; ornithine α-amino, putrescine)	inhibition of ODC (in words) (ODC)	Cell cytotoxicity (72 hr @ 500 μM) Kelly Neuroblastoma [3]	cytotoxicity at 500 µM [3]	cytotoxicity at 72 h, 500 µM [4]	cytotoxic activity against neonatal fibroblasts (in words) [5]	Cell cytotoxicity (72 hr @ 500 μM) Neonatal Fibroblasts [5]	activity against Kelly neuroblastoma cells (in words) [3]
NCCCCN [putrescine]								~10.5	~ 10	not an inhibitor						
NOCCC1CCCCN1 (centres unmarked) [Compound 6]	no ODC activity	3%														
Cc1ncc(COP(=O)(O)O)c(/C=N/OCC2(F)CCNC2)c1O (centres unmarked) [11-PLP, ({4-[(E)-{[(3-fluoropyrrolidin-3-yl)methoxy]imino}methyl]-5-hydroxy-6-methylpyridin-3-yl}methoxy)phosphonic acid]		92%	90 nM	0.41	0,41						9±13%		57%	generally more toxic	57±20%	disappointing neuroblastoma cellular activities
Cc1ncc(COP(=O)(O)O)c(/C=N/OC[C@@H]2CCNC2)c1O [10-R-PLP]		96%	160 nM	0.41	0,41						52±6%		36%	generally more toxic	36±17%	disappointing neuroblastoma cellular activities
Cc1ncc(COP(=O)(O)O)c(/C=N/OCCCN)c1O [APA-PLP, ({4-[(E)-[(3-Aminopropoxy)imino]methyl]-5-hydroxy-6-methylpyridin-3-yl}methoxy)phosphonic Acid]		99%	150 nM	0.45	0,45						24±9%		12%	generally more toxic	12±19%	disappointing neuroblastoma cellular activities
NOCC1CCCNC1 (centres unmarked) [Compound 7, 3-[(Aminooxy)methyl]piperidine Dihydrochloride]		99%	~180 nM and 180 nM								54±9%	54%	3%	reduced cytotoxic activity	3±6%	
Cc1ncc(COP(=O)(O)O)c(/C=N/OC[C@H]2CCNC2)c1O [10-S-PLP, ({5-hydroxy-6-methyl-4-[(E)-({[(3S)-pyrrolidin-3-yl]methoxy}imino)methyl]pyridin-3-yl}methoxy)phosphonic acid]		93%	30 nM	0.47	0,47		8 fold				11±4%		40%	generally more toxic	40±61%	disappointing neuroblastoma cellular activities

More lines, main results first:

ODC inhibitory activity (in words) [2]	inhibition at 50 µM [2]	IC50 [2]	LE ([2]; ligand efficiency)	LE ([2]; supplement csv)	lower activity relative to racemic 7 [2]	relative activity of S-enantiomer over R-enantiomer ([2]; 10-S-PLP vs 10-R-PLP, ODC IC50)	Structure (SMILES)	pKa of amino group ([1]; ornithine α-amino group, putrescine nitrogen)	pKa printed in Figure 1 ([1]; ornithine α-amino, putrescine)	inhibition of ODC (in words) (ODC)	Cell cytotoxicity (72 hr @ 500 μM) Kelly Neuroblastoma [3]	cytotoxicity at 500 µM [3]	cytotoxicity at 72 h, 500 µM [4]	cytotoxic activity against neonatal fibroblasts (in words) [5]	Cell cytotoxicity (72 hr @ 500 μM) Neonatal Fibroblasts [5]	activity against Kelly neuroblastoma cells (in words) [3]
	99%	100 nM					NOC[C@H]1CCNC1 [Compound 10-S]				52±18%	52%	9%	reduced cytotoxic activity	9±8%	
	99%	770 nM			~4 x		NOC[C@@H]1CCCNC1 [Compound 7-R]				49±5%	49%	0%	reduced cytotoxic activity	0±14%	
	99%	210 nM					NOC[C@@H]1CCNC1 [Compound 10-R]				73±12%	73%	16%	reduced cytotoxic activity	16±13%	
	99%	700 nM			~4 x		NOC[C@H]1CCCNC1 [Compound 7-S]				65±6%	65%	0%	reduced cytotoxic activity	0±15%	
	95%	780 nM					NOCC1CNCCO1 (centres unmarked) [Compound 8]				37±11%	37%	0%	reduced cytotoxic activity	0±11%	
	99%	360 nM					NOCC1CCNC1 (centres unmarked) [Compound 10]				66±8%	66%	14%	reduced cytotoxic activity	14±10%	
no inhibitory activity	0%						NOC1CCNCC1 [Compound 9]									
